Measured values: patent publication US20250018046A1, “COMPOUNDS FOR TARGETING DEGRADATION OF IRAK4 PROTEINS” (BIOGEN MA INC, priority 2021, published 2025)

biological target: T1, IRAK4 (Homo sapiens, UniProt Q9NWZ3); experiment: IRAK4 degradation assay using the HiBiT Method; format: cell-based; conditions: 293T cells expressing HiBiT-tagged IRAK4; 6-hour incubation; Nano-Glo HiBiT Lytic Assay luminescence
T1 construct: knocking-in a HiBiT fusion tag into the C-terminal of the IRAK4 gene in 293T cells; host or cells: 293T cells, knock-in of HiBiT at the endogenous IRAK4 locus
T1 sequence (Q9NWZ3 1-460): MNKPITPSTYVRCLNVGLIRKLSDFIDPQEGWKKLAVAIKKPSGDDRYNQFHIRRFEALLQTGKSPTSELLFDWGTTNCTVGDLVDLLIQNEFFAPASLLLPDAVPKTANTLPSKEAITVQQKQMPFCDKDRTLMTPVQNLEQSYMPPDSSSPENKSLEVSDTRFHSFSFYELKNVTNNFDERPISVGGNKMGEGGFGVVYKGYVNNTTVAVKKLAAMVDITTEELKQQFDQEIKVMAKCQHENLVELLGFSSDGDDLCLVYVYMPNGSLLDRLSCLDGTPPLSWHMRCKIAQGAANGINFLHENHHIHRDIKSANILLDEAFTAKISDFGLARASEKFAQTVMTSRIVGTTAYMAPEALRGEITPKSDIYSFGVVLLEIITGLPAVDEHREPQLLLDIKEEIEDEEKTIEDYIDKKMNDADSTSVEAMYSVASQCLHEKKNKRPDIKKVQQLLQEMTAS
Summary of the method: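 HEK293T cells with HiBiT knocked into the IRAK4 C-terminus, 10,000 cells per well, treated with an 11-point half-log series […] in duplicate for 6 hours at 37° C., 5% CO2. Remaining IRAK4 quantified by Nano-Glo HiBiT lytic luminescence against DMSO controls.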

| SMILES | DC50 [nM] |
| --- | --- |
| CC(C)Oc1cc2nc(C3CCN(CC(=O)N4CCC(c5ccc(NC6CCC(=O)NC6=O)cc5)CC4)CC3)cn2cc1NC(=O)c1cccc(C(F)(F)F)c1 (centres unmarked) [Example 54, N-[2-[1-[2-[4-[4-[(2,6-dioxo-3-piperidyl)amino]phenyl]-1-piperidyl]-2-oxo-ethyl]-4-piperidyl]-7-isopropoxy-imidazo[1,2-a]pyridin-6-yl]-3-(trifluoromethyl)benzamide] | 100 to 500 |
| CC(C)Oc1cc2nc(C3CCN(C(=O)CN4CCC(c5ccc(C6CCC(=O)NC6=O)cc5)CC4)C3)cn2cc1NC(=O)c1cccc(C(F)(F)F)n1 (centres unmarked) [Example 75, N-[2-[1-[2-[4-[4-(2,6-dioxo-3-piperidyl)phenyl]-1-piperidyl]acetyl]pyrrolidin-3-yl]-7-isopropoxy-imidazo[1,2-a]pyridin-6-yl]-6-(trifluoromethyl)pyridine-2-carboxamide] | 10 to 100 |
| CC(C)Oc1cc2nn(C3CCN(CC(=O)N4CCC(c5ccc(NC6CCC(=O)NC6=O)cc5F)CC4)CC3)cc2cc1NC(=O)c1cccc(C(F)(F)F)n1 (centres unmarked) [Example 50, N-[2-[1-[2-[4-[4-[(2,6-dioxo-3-piperidyl)amino]-2-fluoro-phenyl]-1-piperidyl]-2-oxo-ethyl]-4-piperidyl]-6-isopropoxy-indazol-5-yl]-6-(trifluoromethyl)pyridine-2-carboxamide] | 10 to 100 |
| CC(C)Oc1cc2nn(C3CCN(C(=O)CN4CCC(c5ccc(NC6CCC(=O)NC6=O)cc5)CC4)CC3)cc2cc1NC(=O)c1cccc(C(F)(F)F)n1 (centres unmarked) [Example 51, N-[2-[1-[2-[4-[4-[(2,6-dioxo-3-piperidyl)amino]phenyl]-1-piperidyl]acetyl]-4-piperidyl]-6-isopropoxy-indazol-5-yl]-6-(trifluoromethyl)pyridine-2-carboxamide] | 10 to 100 |
| CC(C)Oc1cc2nc(C3CCN(CCC(=O)N4CCC(c5ccc(NC6CCC(=O)NC6=O)cc5F)CC4)CC3)cn2cc1NC(=O)c1cccc(C(F)(F)F)n1 (centres unmarked) [Example 31, N-[2-[1-[3-[4-[4-[(2,6-dioxo-3-piperidyl)amino]-2-fluoro-phenyl]-1-piperidyl]-3-oxo-propyl]-4-piperidyl]-7-isopropoxy-imidazo[1,2-a]pyridin-6-yl]-6-(trifluoromethyl)pyridine-2-carboxamide] | 100 to 500 |
| CC(C)Oc1cc2nc(C3CCN(C(=O)CN4CCC(c5cccc(NC6CCC(=O)NC6=O)c5)CC4)CC3)cn2cc1NC(=O)c1cccc(C(F)(F)F)n1 (centres unmarked) [Example 3, N-[2-[1-[2-[4-[3-[(2,6-dioxo-3-piperidyl)amino]phenyl]-1-piperidyl]acetyl]-4-piperidyl]-7-isopropoxy-imidazo[1,2-a]pyridin-6-yl]-6-(trifluoromethyl)pyridine-2-carboxamide] | 100 to 500 |
| CC(C)Oc1cc2nn(C3CCN(C(=O)CN4CCC(c5ccc(NC6CCC(=O)NC6=O)cc5F)CC4)CC3)cc2cc1NC(=O)c1cccc(C(F)(F)F)n1 (centres unmarked) [Example 52, N-(2-(1-(2-(4-(4-((2,6-dioxopiperidin-3-yl)amino)-2-fluorophenyl)piperidin-1-yl)acetyl)piperidin-4-yl)-6-isopropoxy-2H-indazol-5-yl)-6-(trifluoromethyl)picolinamide] | 10 to 100 |
| CC(C)Oc1cc2nc(C3CCN(CC(=O)N4CCC(c5ccc(NC6CCC(=O)NC6=O)cn5)CC4)CC3)cn2cc1NC(=O)c1cccc(C(F)(F)F)n1 (centres unmarked) [Example 11, N-[2-[1-[2-[4-[5-[(2,6-dioxo-3-piperidyl)amino]-2-pyridyl]-1-piperidyl]-2-oxo-ethyl]-4-piperidyl]-7-isopropoxy-imidazo[1,2-a]pyridin-6-yl]-6-(trifluoromethyl)pyridine-2-carboxamide] | 100 to 500 |
| CC(C)Oc1cc2nc(C3CCC(CN4CCC(c5ccc(C6CCC(=O)NC6=O)cc5)CC4)CC3)cn2cc1NC(=O)c1cccc(C(F)(F)F)n1 (centres unmarked) [Example 35, N-[2-[4-[[4-[4-(2,6-dioxo-3-piperidyl)phenyl]-1-piperidyl]methyl]cyclohexyl]-7-isopropoxy-imidazo[1,2-a]pyridin-6-yl]-6-(trifluoromethyl)pyridine-2-carboxamide] | 100 to 500 |
| Cc1cc(N2CCN(C(=O)CN3CCC(c4cn5cc(NC(=O)c6cccc(C(F)(F)F)n6)c(OC(C)C)cc5n4)CC3)CC2)ccc1NC1CCC(=O)NC1=O (centres unmarked) [Example 85, N-[2-[1-[2-[4-[4-[(2,6-dioxo-3-piperidyl)amino]-3-methyl-phenyl]piperazin-1-yl]-2-oxo-ethyl]-4-piperidyl]-7-isopropoxy-imidazo[1,2-a]pyridin-6-yl]-6-(trifluoromethyl) pyridine-2-carboxamide] | 100 to 500 |
| CC(C)Oc1cc2nc(C3CCN(C(=O)CN4CCC(c5ccc(OC6CCC(=O)NC6=O)cc5)CC4)CC3)cn2cc1NC(=O)c1cccc(C(F)(F)F)n1 (centres unmarked) [Example 1, N-[2-[1-[2-[4-[4-[(2,6-dioxo-3-piperidyl)oxy]phenyl]-1-piperidyl]acetyl]-4-piperidyl]-7-isopropoxy-imidazo[1,2-a]pyridin-6-yl]-6-(trifluoromethyl) pyridine-2-carboxamide] | 100 to 500 |

The remaining lines, values ahead:

| DC50 [nM] | SMILES |
| --- | --- |
| 10 to 100 | CC(C)Oc1cc2nc(C3CCN(CC(=O)N4CCN(c5ccc(OC6CCC(=O)NC6=O)cc5)CC4)CC3)cn2cc1NC(=O)c1cccc(C(F)(F)F)n1 (centres unmarked) [Example 28, N-[2-[1-[2-[4-[4-[(2,6-dioxo-3-piperidyl)oxy]phenyl]piperazin-1-yl]-2-oxo-ethyl]-4-piperidyl]-7-isopropoxy-imidazo[1,2-a]pyridin-6-yl]-6-(trifluoromethyl)pyridine-2-carboxamide] |
| 100 to 500 | CC(C)Oc1cc2nc(C3CCN(C(=O)c4ccccc4CNC(=O)c4ccc(OC5CCC(=O)NC5=O)cc4)CC3)cn2cc1NC(=O)c1cccc(C(F)(F)F)n1 (centres unmarked) [Example 82, N-[2-[1-[2-[[[4-[(2,6-dioxo-3-piperidyl)oxy]benzoyl]amino]methyl]benzoyl]-4-piperidyl]-7-isopropoxy-imidazo[1,2-a]pyridin-6-yl]-6-(trifluoromethyl)pyridine-2-carboxamide] |
| 10 to 100 | CC(C)Oc1cn2cc(C3CCN(CC(=O)N4CCC(c5ccc(NC6CCC(=O)NC6=O)cc5)CC4)CC3)nc2cc1NC(=O)c1cccc(C(F)(F)F)n1 (single isomer, unassigned) [Example 14, N-[2-[1-[2-[4-[4-[[2,6-dioxo-3-piperidyl]amino]phenyl]-1-piperidyl]-2-oxo-ethyl]-4-piperidyl]-6-isopropoxy-imidazo[1,2-a]pyridin-7-yl]-6-(trifluoromethyl)pyridine-2-carboxamide] |
| 100 to 500 | CC(C)Oc1cc2nc(C3CCCN(C(=O)CN4CCC(c5ccc(C6CCC(=O)NC6=O)cc5)CC4)C3)cn2cc1NC(=O)c1cccc(C(F)(F)F)n1 (centres unmarked) [Example 76, N-[2-[1-[2-[4-[4-(2,6-dioxo-3-piperidyl)phenyl]-1-piperidyl]acetyl]-3-piperidyl]-7-isopropoxy-imidazo[1,2-a]pyridin-6-yl]-6-(trifluoromethyl)pyridine-2-carboxamide] |
| 100 to 500 | CC(C)Oc1cc2nc(C3CCN(CC(=O)N4CCN(CCCc5ccc(NC6CCC(=O)NC6=O)cc5)CC4)CC3)cn2cc1NC(=O)c1cccc(C(F)(F)F)n1 (centres unmarked) [Example 16, N-[2-[1-[2-[4-[3-[4-[(2,6-dioxo-3-piperidyl)amino]phenyl]propyl]piperazin-1-yl]-2-oxo-ethyl]-4-piperidyl]-7-isopropoxy-imidazo[1,2-a]pyridin-6-yl]-6-(trifluoromethyl) pyridine-2-carboxamide] |
| 100 to 500 | CC(C)Oc1cc2nc(C3CCN(C(=O)CN4CCC(c5ccc(NC6CCC(=O)NC6=O)cc5F)CC4)CC3)cn2cc1NC(=O)c1cccc(C(F)(F)F)n1 (centres unmarked) [Example 7, N-[2-[1-[2-[4-[4-[(2,6-dioxo-3-piperidyl)amino]-2-fluoro-phenyl]-1-piperidyl]acetyl]-4-piperidyl]-7-isopropoxy-imidazo[1,2-a]pyridin-6-yl]-6-(trifluoromethyl)pyridine-2-carboxamide] |
| 100 to 500 | CC(C)Oc1cc2nc(C3CCN(CC(=O)N4CCC(c5ccc(CN6CCC(=O)NC6=O)cc5)CC4)CC3)cn2cc1NC(=O)c1cccc(C(F)(F)F)n1 [Example 25, N-[2-[1-[2-[4-[4-[(2,4-dioxohexahydropyrimidin-1-yl)methyl]phenyl]-1-piperidyl]-2-oxo-ethyl]-4-piperidyl]-7-isopropoxy-imidazo[1,2-a]pyridin-6-yl]-6-(trifluoromethyl) pyridine-2-carboxamide] |
| 100 to 500 | CC(C)Oc1cc2nc([C@H]3CC[C@H](CN(C)C4CCN(c5cccc6c5n(C)c(=O)n6C5CCC(=O)NC5=O)CC4)CC3)cn2cc1NC(=O)c1cccc(C(F)(F)F)n1 (some centres unmarked) [Example 42, N-[2-[4-[[[1-[1-(2,6-dioxo-3-piperidyl)-3-methyl-2-oxo-benzimidazol-4-yl]-4-piperidyl]-methyl-amino]methyl]cyclohexyl]-7-isopropoxy-imidazo[1,2-a]pyridin-6-yl]-6-(trifluoromethyl)pyridine-2-carboxamide] |
| 10 to 100 | Cc1cc(NC2CCC(=O)NC2=O)ccc1C1CCN(C(=O)CN2CCC(c3cn4cc(NC(=O)c5cccc(C(F)(F)F)n5)c(OC(C)C)cc4n3)CC2)CC1 (centres unmarked) [Example 87, N-[2-[1-[2-[4-[4-[(2,6-dioxo-3-piperidyl)amino]-2-methyl-phenyl]-1-piperidyl]-2-oxo-ethyl]-4-piperidyl]-7-isopropoxy-imidazo[1,2-a]pyridin-6-yl]-6-(trifluoromethyl) pyridine-2-carboxamide] |
